Data from US20130345419A1, “AZOLE DERIVATIVE” (TAISHO PHARMACEUTICAL CO., LTD., priority 2011, published 2013).

These compounds were tested against T1, human recombinant FKBP12 (Homo sapiens, UniProt P62942) (assay: Test 1: immunophilin FKBP12 rotamase (peptidylprolyl isomerase) inhibiting activity). Details: 12 nM human recombinant FKBP12, substrate succinyl-Ala-Phe-Pro-Phe-paranitroanilide 48 μM, 4° C.; read-out: PKBP12 rotamase inhibiting activity IC50.
T1 construct: purchased Sigma F-5398
Assay type: biochemical
Protocol: (Test 1) Test for Measuring Immunophilin FKBP12 Rotamase Activity
The rotamase (peptidylprolyl isomerase) inhibiting activity of each test compound was measured by a known method (Harding et al., Nature 341, 758-760, 1989; Holts et al., J. Am. Chem. Soc. 115, 9925-9938, 1993.) To be more specific, a plastic cuvette was charged with 35 mM HEPES (pH 7.8), 12 nM human recombinant FKBP12 (Sigma, F-5398), 0.4 mg/mL α-chymotrypsin, and a test compound dissolved in DMSO at varying concentrations (DMSO's final concentration was 0.1%.) Subsequently, 24 mM of the substrate peptide, succinyl-Ala-Phe-Pro-Phe-paranitroanilide, as dissolved in trifluoroethanol containing 500 mM of LiCl was added to give a final concentration of 48 μM, whereupon reaction started. The reaction was carried out at 4° C. and the change in absorbance at 390 nm accompanying the liberation of the paranitroaniline product was monitored. A calculated initial rate minus the corresponding value in the absence of the enzyme was used as an index of rotamase activity. The rotamase inhibiting activity of a test compound was expressed in relative values (%) with respect to the control value of rotamase activity in the absence of the compound, and the concentration of the compound at which it was capable of inhibiting rotamase activity by 50% was calculated as an IC50 value from its concentration response curve.

T1 sequence (P62942 whole entry): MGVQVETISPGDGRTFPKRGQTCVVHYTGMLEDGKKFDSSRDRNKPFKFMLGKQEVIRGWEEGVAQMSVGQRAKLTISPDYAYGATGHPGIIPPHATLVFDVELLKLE

Compound	IC50
COc1ccc(OCc2nnc([C@@H]3CCCN3C(=O)C(F)(F)C3(O)CC(C)(C)CC(C)(C)C3)o2)cc1OC [Compound 2, (S)-1-(2-(5-((3,4-Dimethoxyphenoxy)methyl)-1,3,4-oxadiazol-2-yl)pyrrolidin-1-yl)-2,2-difluoro-2-(1-hydroxy-3,3,5,5-tetramethylcyclohexyl)ethanone]	62 nM
COc1ccc(OCc2noc([C@@H]3CCCN3C(=O)C(F)(F)C3(O)CC(C)(C)CC(C)(C)C3)n2)cc1OC [Compound 3, (S)-1-(2-(3-((3,4-Dimethoxyphenoxy)methyl)-1,2,4-oxadiazol-5-yl)pyrrolidin-1-yl)-2,2-difluoro-2-(1-hydroxy-3,3,5,5-tetramethylcyclohexyl)ethanone]	500 to 1000 nM
COc1ccc(OCc2nnc([C@@H]3CCCN3C(=O)C(F)(F)C3(O)CC(C)(C)CC(C)(C)C3)s2)cc1OC [Compound 4, (S)-1-(2-(5-((3,4-Dimethoxyphenoxy)methyl)-1,3,4-thiadiazol-2-yl)pyrrolidin-1-yl)-2,2-difluoro-2-(1-hydroxy-3,3,5,5-tetramethylcyclohexyl)ethanone]	145 nM
COc1ccc(OCc2nc([C@@H]3CCCN3C(=O)C(F)(F)C3(O)CC(C)(C)CC(C)(C)C3)n[nH]2)cc1OC [Compound 5, (S)-1-(2-(5-((3,4-Dimethoxyphenoxy)methyl)-4H-1,2,4-triazol-3-yl)pyrrolidin-1-yl)-2,2-difluoro-2-(1-hydroxy-3,3,5,5-tetramethylcyclohexyl)ethanone]	119 nM
COc1ccc(OCc2cnc([C@@H]3CCCN3C(=O)C(F)(F)C3(O)CC(C)(C)CC(C)(C)C3)o2)cc1OC [Compound 6, (S)-1-(2-(5-((3,4-Dimethoxyphenoxy)methyl)oxazol-2-yl)pyrrolidin-1-yl)-2,2-difluoro-2-(1-hydroxy-3,3,5,5-tetramethylcyclohexyl)ethanone]	500 to 1000 nM
COc1ccc(OCc2cnc([C@@H]3CCCN3C(=O)C(F)(F)C3(O)CC(C)(C)CC(C)(C)C3)s2)cc1OC [Compound 7, (S)-1-(2-(5-((3,4-Dimethoxyphenoxy)methyl)thiazol-2-yl)pyrrolidin-1-yl)-2,2-difluoro-2-(1-hydroxy-3,3,5,5-tetramethylcyclohexyl)ethanone]	500 to 1000 nM
COc1ccc(OCc2nc([C@@H]3CCCN3C(=O)C(F)(F)C3(O)CC(C)(C)CC(C)(C)C3)nn2C)cc1OC [Compound 8, (S)-1-(2-(5-((3,4-Dimethoxyphenoxy)methyl)-1-methyl-1H-1,2,4-triazol-3-yl)pyrrolidin-1-yl)-2,2-difluoro-2-(1-hydroxy-3,3,5,5-tetramethylcyclohexyl)ethanone]	189 nM
COc1ccc(OCc2cc([C@@H]3CCCN3C(=O)C(F)(F)C3(O)CC(C)(C)CC(C)(C)C3)nn2C)cc1OC [Compound 9, (S)-1-(2-(5-((3,4-Dimethoxyphenoxy)methyl)-1-methyl-1H-pyrazol-3-yl)pyrrolidin-1-yl)-2,2-difluoro-2-(1-hydroxy-3,3,5,5-tetramethylcyclohexyl)ethanone]	500 to 1000 nM
COc1ccc(OCc2cc([C@@H]3CCCN3C(=O)C(F)(F)C3(O)CC(C)(C)CC(C)(C)C3)on2)cc1OC [Compound 10, (S)-1-(2-(3-((3,4-Dimethoxyphenoxy)methyl)isoxazol-5-yl)pyrrolidin-1-yl)-2,2-difluoro-2-(1-hydroxy-3,3,5,5-tetramethylcyclohexyl)ethanone]	500 to 1000 nM
COc1ccc(OCc2cc([C@@H]3CCCN3C(=O)C(F)(F)C3(O)CC(C)(C)CC(C)(C)C3)n[nH]2)cc1OC [Compound 11, (S)-1-(2-(5-((3,4-Dimethoxyphenoxy)methyl)-1H-pyrazol-3-yl)pyrrolidin-1-yl)-2,2-difluoro-2-(1-hydroxy-3,3,5,5-tetramethylcyclohexyl)ethanone]	235 nM
COc1ccc(CCc2nnc([C@@H]3CCCN3C(=O)C(F)(F)C3(O)CC(C)(C)CC(C)(C)C3)o2)cc1OC [Compound 12]	270 nM
COc1ccc(-c2nnc([C@@H]3CCCN3C(=O)C(F)(F)C3(O)CC(C)(C)CC(C)(C)C3)o2)cc1OC [Compound 13]	434 nM
COc1ccc(CCCc2nnc([C@@H]3CCCN3C(=O)C(F)(F)C3(O)CC(C)(C)CC(C)(C)C3)o2)cc1OC [Compound 14]	500 to 1000 nM
COc1ccc(Cc2nnc([C@@H]3CCCN3C(=O)C(F)(F)C3(O)CC(C)(C)CC(C)(C)C3)o2)cc1OC [Compound 16]	142 nM
CC1(C)CC(C)(C)CC(O)(C(F)(F)C(=O)N2CCC[C@H]2c2nnc(COc3cccnc3)o2)C1 [Compound 17]	356 nM
CC1(C)CC(C)(C)CC(O)(C(F)(F)C(=O)N2CCC[C@H]2c2cc(CO)on2)C1 [Compound 18, (S)-2,2-Difluoro-2-(1-hydroxy-3,3,5,5-tetramethylcyclohexyl)-1-(2-(5-(hydroxymethyl)isoxazol-3-yl)pyrrolidin-1-yl)ethanone]	500 to 1000 nM
CC1(C)CC(C)(C)CC(O)(C(F)(F)C(=O)N2CCC[C@H]2c2nnc(COc3ccc(CO)cc3)o2)C1 [Compound 19]	229 nM
COc1cc(OCc2nnc([C@@H]3CCCN3C(=O)C(F)(F)C3(O)CC(C)(C)CC(C)(C)C3)o2)cc(OC)c1OC [Compound 20]	276 nM
COc1cc(OCc2cc([C@@H]3CCCN3C(=O)C(F)(F)C3(O)CC(C)(C)CC(C)(C)C3)no2)cc(OC)c1OC [Compound 21, (S)-2,2-Difluoro-2-(1-hydroxy-3,3,5,5-tetramethylcyclohexyl)-1-(2-(5-((3,4,5-trimethoxyphenoxy)methyl)isoxazol-3-yl)pyrrolidin-1-yl)ethanone]	64 nM

Compound	IC50
CC1(C)CC(C)(C)CC(O)(C(F)(F)C(=O)N2CCC[C@H]2c2nnc(CO)o2)C1 [Compound 22, (S)-2,2-Difluoro-2-(1-hydroxy-3,3,5,5-tetramethylcyclohexyl)-1-(2-(5-(hydroxymethy)-1,3,4-oxadiazol-2-yl)pyrrolidin-1-yl)ethanone]	1000 to 2000 nM
CC1(C)CC(C)(C)CC(O)(C(F)(F)C(=O)N2CCC[C@H]2c2nnc(COS(C)(=O)=O)o2)C1 [Compound 23, (S)-(5-(1-(2,2-Difluoro-2-(1-hydroxy-3,3,5,5-tetramethylcyclohexyl)acetyl)pyrrolidin-2-yl)-1,3,4-oxadiazol-2-yl)methyl methanesulfonate]	1000 to 2000 nM
COc1ccc(OCc2nnc([C@@H]3CCCN3C(=O)C(F)(F)C3(O)CC(C)(C)CC(C)(C)C3)o2)cc1 [Compound 24]	218 nM
COc1ccccc1OCc1nnc([C@@H]2CCCN2C(=O)C(F)(F)C2(O)CC(C)(C)CC(C)(C)C2)o1 [Compound 25]	401 nM
COc1cccc(OCc2nnc([C@@H]3CCCN3C(=O)C(F)(F)C3(O)CC(C)(C)CC(C)(C)C3)o2)c1 [Compound 26]	500 to 1000 nM
Cc1nnc([C@@H]2CCCN2C(=O)C(F)(F)C2(O)CC(C)(C)CC(C)(C)C2)o1 [Compound 27]	500 to 1000 nM
COc1ccc(Oc2nnc([C@@H]3CCCN3C(=O)C(F)(F)C3(O)CC(C)(C)CC(C)(C)C3)o2)cc1OC [Compound 28]	351 nM
CC1(C)CC(C)(C)CC(O)(C(F)(F)C(=O)N2CCC[C@H]2c2nnc(COc3ccccc3)o2)C1 [Compound 29, (S)-2,2-Difluoro-2-(1-hydroxy-3,3,5,5-tetramethylcyclohexyl)-1-(2-(5-(phenoxymethyl)-1,3,4-oxadiazol-2-yl)pyrrolidin-1-yl)ethanone]	62 nM
COc1ccc(OCc2nnc([C@@H]3CCCN3C(=O)C(F)(F)C3(O)CC(C)(C)CC(C)(C)C3)o2)c(OC)c1 [Compound 30]	220 nM
COc1ccc(OCc2nnc([C@@H]3CCCN3C(=O)C(F)(F)C3(O)CC(C)(C)CC(C)(C)C3)o2)cn1 [Compound 31]	389 nM
CC1(C)CC(C)(C)CC(O)(C(F)(F)C(=O)N2CCC[C@H]2c2nnc(COc3ccc4c(c3)OCO4)o2)C1 [Compound 32]	165 nM
CC1(C)CC(C)(C)CC(O)(C(F)(F)C(=O)N2CCC[C@H]2c2nnc(COc3ccc4cc[nH]c4c3)o2)C1 [Compound 33]	259 nM
CC1(C)CC(C)(C)CC(O)(C(F)(F)C(=O)N2CCC[C@H]2c2nnc(Cc3cccnc3)o2)C1 [Compound 34]	500 to 1000 nM
CC1(C)CC(C)(C)CC(O)(C(F)(F)C(=O)N2CCC[C@H]2c2cc(CCc3cccnc3)on2)C1 [Compound 35]	45 nM
CC1(C)CC(C)(C)CC(O)(C(F)(F)C(=O)N2CCC[C@H]2c2nnc(COc3cncnc3)o2)C1 [Compound 36]	1000 to 2000 nM
CC1(C)CC(C)(C)CC(O)(C(F)(F)C(=O)N2CCC[C@H]2c2nnc(CN)o2)C1 [Compound 37]	1000 to 2000 nM
CC1(C)CC(C)(C)CC(O)(C(F)(F)C(=O)N2CCC[C@H]2c2nnc(CNC(=O)c3ccccc3)o2)C1 [Compound 38, (S)—N-((5-(1-(2,2-Difluoro-2-(1-hydroxy-3,3,5,5-tetramethylcyclohexyl)acetyl)pyrrolidin-2-yl)-1,3,4-oxadiazol-2-yl)methyl)benzamide]	500 to 1000 nM
CN(C)Cc1nnc([C@@H]2CCCN2C(=O)C(F)(F)C2(O)CC(C)(C)CC(C)(C)C2)o1 [Compound 39, (S)-1-(2-(5-((Dimethylamino)methyl)-1,3,4-oxadiazol-2-yl)pyrrolidin-1-yl)-2,2-difluoro-2-(1-hydroxy-3,3,5,5-tetramethylcyclohexyl)ethanone]	500 to 1000 nM
